Counter-ions that a name gives are not always drawn.
Assay: Thermal stability at 110° C. in an open flask (HPLC purity)
Assay type: physicochemical
Procedure: The thermal stability of the delta form at 110° C. in an open flask was compared to that of forms from the prior art.

[1] = 76 hours at 110° C., open flask
[2] = t = 0, before heating (baseline of the thermal stability test)

Row | Compound | HPLC purity (%) [1] [%] | HPLC purity (%) [2] [%] | Thermal stability compared to the other known forms (110° C., open flask)
1 | CCC[C@H](N[C@@H](C)C(=O)N1[C@H](C(=O)O)C[C@@H]2CCCC[C@@H]21)C(=O)OCC.N=C(N)NCCC[C@H](N)C(=O)O [Form obtained according to the process of SI 23001] | 86.9 | 99.1 | –
2 | CCC[C@H](N[C@@H](C)C(=O)N1[C@H](C(=O)O)C[C@@H]2CCCC[C@@H]21)C(=O)OCC [perindopril L-arginine salt] | 99.5 | 99.7 | improved thermal stability
3 | CCC[C@H](N[C@@H](C)C(=O)N1[C@H](C(=O)O)C[C@@H]2CCCC[C@@H]21)C(=O)OCC.N=C(N)NCCC[C@H](N)C(=O)O [α form according to EP 1 989 182] | 98.8 | 99.8 | –
4 | CCC[C@H](N[C@@H](C)C(=O)N1[C@H](C(=O)O)C[C@@H]2CCCC[C@@H]21)C(=O)OCC.N=C(N)NCCC[C@H](N)C(=O)O [β form according to EP 2 016 051] | 98.3 | 99.6 | –
5 | CCC[C@H](N[C@@H](C)C(=O)N1[C@H](C(=O)O)C[C@@H]2CCCC[C@@H]21)C(=O)OCC.N=C(N)NCCC[C@H](N)C(=O)O [γ form according to WO 2009/157018] | 93.4 | 99.7 | –
